Test system: lactating dairy cows
Assay: Experiment 2: P/AI on 11 commercial dairies, Ovsynch vs. Ovsynch + second cloprostenol sodium injection
Assay type: in vivo, cattle
Experimental: An experiment was performed on 11 commercial dairies in different locations in the United States: 3 dairies in Wisconsin; 3 dairies in California; 2 dairies in New York; 1 dairy in Pennsylvania; 1 dairy in New Mexico; and 1 dairy in Texas. Although overall management was quite different for each herd, each herd used the same reproductive management protocol during this experiment. Cows were randomly assigned within herd, parity, and date to one of three treatment groups at about 40 to about 46 days in milk. One of the treatment groups, Presynch-Ovsynch with heat detection, was not considered in the present analysis. Therefore only two treatment groups were utilized for all analyses, as shown in the diagram for Experiment 2 in FIG. 2.
All animals were synchronized using a GnRH composition (about 100 mcg of gonadorelin acetate per mL, GONAbreed®, Parnell Technologies Pty Ltd, Alexandria, Australia) and a PGF2α analog composition (about 250 mcg of cloprostenol sodium per mL, estroPLAN®, Parnell Technologies Pty Ltd, Alexandria, Australia).
(§1) One treatment group began at about 47 to about 53 days in milk where the cows received a first 1 mL intramuscular injection of a gonadorelin acetate composition. At about 54 to about 60 days in milk, the cows received a first 2 mL intramuscular injection of a cloprostenol sodium composition. At about 56 to about 62 days in milk (about 56 hours after the first injection of the cloprostenol sodium composition), the cows received a second 1 mL intramuscular injection of a gonadorelin acetate composition. And at about 57 to about 63 days in milk (about 16 hours after the second injection of the gonadorelin acetate composition), the animals received AI, concluding the Ovsynch phase.
as §1, with “The other treatment group” for “One treatment group”, “a first 2 mL intramuscular injection of a cloprostenol sodium composition. At about 55 to about 61 days in milk (about 24 hours after the first injection of the cloprostenol sodium composition), the cows received a second 2 mL” for “a first 2 mL”
Pregnancy diagnosis was performed with ultrasound utilizing the normal schedule for each herd (Wisconsin and Pennsylvania herds, 31-33 days after AI; California, New York, New Mexico, and Texas herds, 37-43 days after AI). Data on all treatments, AI, and pregnancy diagnosis were recorded for each individual cow in most cases (n=1,912). In some cows, data was extrapolated from other recorded data due to missing one treatment recording (n=110) or two or more treatment recordings in a cow (n=126). Pregnancy was based on a verified pregnancy diagnosis. Non-pregnancy was based on absence of pregnancy at a pregnancy diagnosis or a rebreeding to an estrus prior to pregnancy diagnosis. Statistical analyses were performed using PROC Logistic in SAS. Treatment and parity were forced into the model and factors were kept in the model if they were significant at P<0.15.

## O=C(O)CCC/C=C\CC1C(O)CC(O)C1/C=C/C(O)COc1cccc(Cl)c1 (centres unmarked) [cloprostenol sodium]
All Multiparous
  Effect of second cloprostenol sodium injection, Difference in P/AI: +10.65% (P = 0.073)
Fourth or Greater lactation
  Effect of second cloprostenol sodium injection, Difference in P/AI: +0.09% (P = 0.517)
Ovsynch (one cloprostenol sodium injection), farm CA-01
  P/AI, % (n/n): 29.4%
Ovsynch (one injection), All Multiparous
  percentage of cows pregnant per AI: 32.01 (259/809) %
Ovsynch (one injection), Fourth or Greater lactation
  percentage of cows pregnant per AI: 30.09 (65/216) %
Ovsynch (one injection), Primiparous
  percentage of cows pregnant per AI: 37.07 (99/267) %
Ovsynch (one injection), Second and Third lactation
  percentage of cows pregnant per AI: 32.71 (194/593) %
Ovsynch (one injection), Total of 11 farms
  P/AI, % (n/n): 33.3%
Ovsynch (one injection), farm CA-02
  P/AI, % (n/n): 35.3%
Ovsynch (one injection), farm CA-O3
  P/AI, % (n/n): 30.4%
Ovsynch (one injection), farm NM-04
  P/AI, % (n/n): 35.2%
Ovsynch (one injection), farm NY-05
  P/AI, % (n/n): 32.7%
Ovsynch (one injection), farm NY-06
  P/AI, % (n/n): 29.4%
Ovsynch (one injection), farm PA-07
  P/AI, % (n/n): 39.2%
Ovsynch (one injection), farm TX-08
  P/AI, % (n/n): 37.7%
Ovsynch (one injection), farm WI-09
  P/AI, % (n/n): 28.1%
Ovsynch (one injection), farm WI-10
  P/AI, % (n/n): 35.3%
Ovsynch (one injection), farm WI-11
  P/AI, % (n/n): 26.9%
Ovsynch + second cloprostenol sodium injection, farm CA-01
  P/AI, % (n/n): 36.4%
Ovsynch + second injection, All Multiparous
  percentage of cows pregnant per AI: 35.42 (288/813) %
Ovsynch + second injection, Fourth or Greater lactation
  percentage of cows pregnant per AI: 30.36 (68/224) %
Ovsynch + second injection, Primiparous
  percentage of cows pregnant per AI: 38.22 (99/259) %
Ovsynch + second injection, Second and Third lactation
  percentage of cows pregnant per AI: 37.35 (220/589) %
Ovsynch + second injection, Total of 11 farms
  P/AI, % (n/n): 36.1%
Ovsynch + second injection, farm CA-02
  P/AI, % (n/n): 39.8%
Ovsynch + second injection, farm CA-O3
  P/AI, % (n/n): 34.1%
Ovsynch + second injection, farm NM-04
  P/AI, % (n/n): 37.7%
Ovsynch + second injection, farm NY-05
  P/AI, % (n/n): 31.2%
Ovsynch + second injection, farm NY-06
  P/AI, % (n/n): 42.0%
Ovsynch + second injection, farm PA-07
  P/AI, % (n/n): 43.6%
Ovsynch + second injection, farm TX-08
  P/AI, % (n/n): 29.8%
Ovsynch + second injection, farm WI-09
  P/AI, % (n/n): 40.4%
Ovsynch + second injection, farm WI-10
  P/AI, % (n/n): 37.0%
Ovsynch + second injection, farm WI-11
  P/AI, % (n/n): 26.9%
Second and Third lactation
  Effect of second cloprostenol sodium injection, Difference in P/AI: +14.19% (P = 0.047)
Total of 11 farms
  Effect of second cloprostenol sodium injection, relative difference in P/AI: +8.50%
Farm CA-01
  Effect of second cloprostenol sodium injection, relative difference in P/AI: +23.64%
Farm CA-02
  Effect of second cloprostenol sodium injection, relative difference in P/AI: +12.99%
Farm CA-O3
  Effect of second cloprostenol sodium injection, relative difference in P/AI: +12.03%
Farm NM-04
  Effect of second cloprostenol sodium injection, relative difference in P/AI: +7.04%
Farm NY-05
  Effect of second cloprostenol sodium injection, relative difference in P/AI: −4.47%
Farm NY-06
  Effect of second cloprostenol sodium injection, relative difference in P/AI: +43.11%
Farm PA-07
  Effect of second cloprostenol sodium injection, relative difference in P/AI: +10.98%
Farm TX-08
  Effect of second cloprostenol sodium injection, relative difference in P/AI: −20.86%
Farm WI-09
  Effect of second cloprostenol sodium injection, relative difference in P/AI: +43.75%
Farm WI-10
  Effect of second cloprostenol sodium injection, relative difference in P/AI: −4.94%
Farm WI-11
  Effect of second cloprostenol sodium injection, relative difference in P/AI: 0.0%
primiparous
  Effect of second cloprostenol sodium injection, Difference in P/AI: +3.10% (P = 0.393)

## prostaglandin F2α [PGF]
Total of 11 farms
  Effect of second cloprostenol sodium injection, relative difference in P/AI: 8.5%
All results combined, 11 farms
  absolute improvement in fertility due to the second PGF treatment: ~3%

Source: patent US20170065667A1, “METHODS FOR SYNCHRONIZATION OF ESTROUS CYCLES AND OVULATION FOR FIXED TIME ARTIFICIAL INSEMINATION IN CATTLE” (Parnell Technologies Pty Ltd., priority 2014, published 2017)
